32 molecules from patent US11358969B2, “Indole AHR inhibitors and uses thereof” (Ikena Oncology, Inc., priority 2017, dated 2022) can be followed below.

This test addresses T1, AHR (UniProt P35869).
T1 construct: IC50
T1 sequence (P35869 1-848): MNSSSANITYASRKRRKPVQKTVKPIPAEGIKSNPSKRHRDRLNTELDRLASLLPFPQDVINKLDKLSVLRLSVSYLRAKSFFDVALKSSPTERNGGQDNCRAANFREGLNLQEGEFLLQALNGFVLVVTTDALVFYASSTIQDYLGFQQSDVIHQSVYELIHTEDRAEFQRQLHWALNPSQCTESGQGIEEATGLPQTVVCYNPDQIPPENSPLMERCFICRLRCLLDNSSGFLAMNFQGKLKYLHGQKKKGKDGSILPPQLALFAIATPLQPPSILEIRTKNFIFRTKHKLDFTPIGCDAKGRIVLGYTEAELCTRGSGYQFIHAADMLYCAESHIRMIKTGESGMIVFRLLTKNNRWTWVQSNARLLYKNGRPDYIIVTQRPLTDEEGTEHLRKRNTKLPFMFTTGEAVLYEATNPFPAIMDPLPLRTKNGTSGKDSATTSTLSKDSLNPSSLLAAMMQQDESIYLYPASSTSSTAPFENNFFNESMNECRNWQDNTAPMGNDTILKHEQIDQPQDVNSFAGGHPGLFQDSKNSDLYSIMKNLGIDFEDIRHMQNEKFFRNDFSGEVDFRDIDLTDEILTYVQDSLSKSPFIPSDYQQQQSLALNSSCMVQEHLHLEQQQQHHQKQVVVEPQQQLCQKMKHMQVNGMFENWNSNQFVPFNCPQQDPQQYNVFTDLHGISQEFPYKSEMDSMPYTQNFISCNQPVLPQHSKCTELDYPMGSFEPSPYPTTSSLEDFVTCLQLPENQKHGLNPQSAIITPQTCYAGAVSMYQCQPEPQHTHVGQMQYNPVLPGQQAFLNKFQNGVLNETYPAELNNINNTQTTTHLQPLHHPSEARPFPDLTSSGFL
Put plainly: DRE-Luciferase Reporter Assay (Alternate Method) (Example 1B). In kind it is cell-based, murine or human. The following applies: cell line and AHR activating ligand not specified. As to the method: AHR binds to Dioxin Responsive Elements (DRE) upstream of genes that it activates. One measure of AHR activity is activation of a reporter gene, such as luciferase, downstream of one or multiple DRE elements. Luciferase activity will reflect activation and inhibition of AHR in the cells expressing his reporter.
Murine Hepa1-6 or Hepa-1c1c7 or other murine cell line with a DRE-luciferase reporter either stably or transiently transfected were plated in media in plates (96-well, 384-well or other plates) and incubated overnight at 37° C. in a CO2 incubator or compound and agonist were added at the time of plating. Likewise, human HepG2 or other human cell line with a DRE-luciferase reporter either stably or transiently transfected were plated in media in plates (96-well, 384-well or other plates) and incubated overnight at 37° C. in a CO2 incubator or compound and agonist were added at the time of plating.
At the time that cells are plated or following incubation overnight, an AHR activating ligand, such as TCDD, kynurenine, ITE (2-(1H-indole-3-ylcarbonyl)-4-thiazolecarboxylic methyl ester), VAF347, BNF (beta-naphthoflavone), FICZ (6-formylindolo(3,2-b) carbazole or other AHR ligands, was added with or without AHR antagonist.
Cells were incubated for 4, 15 or 24 hours or another time point and then lysed for determination of luciferase activity as a read-out of the AHR activation or inhibition. Luciferase was measured with a commercial kit such as the Promega Luciferase kit or any kit or reagents that provide the luciferin substrate for measuring luciferase activity. The level of luciferase with only activating ligand added was the maximum signal while the luciferase with no ligand was the minimum signal. IC50 values were determined as the concentration which inhibits half of the luciferase activity.
(In a reporter assay the amount or activity of a reporter protein is the signal.)

Broadly, the IC50 is the concentration needed to halve the response being measured. Turning to `Cc1cnn2c(NC[C@H](O)c3c[nH]c4ccccc34)cc(-c3cncc(F)c3)nc12` [I-150a, (1R)-2-[[5-(5-Fluoro-3-pyridyl)-3-methyl-pyrazolo[1,5-a]pyrimidin-7-yl]amino]-1-(1H-indol-3-yl)ethanol], the IC50 was less than 0.5 µM. Molecule `Cc1cnn2c(N[C@@H]3CCc4[nH]ccc4C3)nc(-c3cncc(F)c3)nc12` [I-259b, 2-(5-Fluoro-3-pyridyl)-8-methyl-N-[(5R)-4,5,6,7-tetrahydro-1H-indol-5-yl]pyrazolo[1,5-a][1,3,5]triazin-4-amine] registered an IC50 of less than 0.5 µM. Molecule `CC(C)c1cnn2c(N[C@@H]3CCc4[nH]c5ccccc5c4C3)cc(-c3cccnc3)nc12` [I-245, (3R)—N-[3-Isopropyl-5-(3-pyridyl)pyrazolo[1,5-a]pyrimidin-7-yl]-2,3,4,9-tetrahydro-1H-carbazol-3-amine] showed an IC50 of more than 1.5 µM. In the case of `CC(C)c1cnn2c(NC3CCc4[nH]c5ccccc5c4C3)nc(-c3ccc(C(F)(F)F)nc3)nc12` (centres unmarked) [I-280], the IC50 is more than 1.5 µM.

For the molecule `Fc1cncc(-c2ccnc(NCCc3c[nH]c4ccccc34)n2)c1` [I-120, 4-(5-Fluoro-3-pyridyl)-N-[2-(1H-indol-3-yl)ethyl]pyrimidin-2-amine], the IC50 is more than 1.5 µM. With `CC(C)c1cnn2c(N[C@H]3CCc4[nH]c5c(F)cc(F)cc5c4C3)nc(-c3cncc(F)c3)nc12` [I-139a, (3S)-6,8-difluoro-N-[2-(5-fluoro-3-pyridyl)-8-isopropyl-pyrazolo[1,5-a][1,3,5]triazin-4-yl]-2,3,4,9-tetrahydro-1H-carbazol-3-amine] the figure was less than 0.5 µM; with `Cc1[nH]c2c(F)cccc2c1CCNc1cc(-c2cncc(F)c2)nc2c(C(=O)N3CCOCC3)cnn12` [I-225, [7-[2-(7-Fluoro-2-methyl-1H-indol-3-yl)ethylamino]-5-(5-fluoro-3-pyridyl)pyrazolo[1,5-a]pyrimidin-3-yl]-morpholino-methanone], less than 0.5 µM. For `Cc1cnn2c(N[C@H]3CCc4[nH]c5c(F)cccc5c4C3)cc(-c3cncc(F)c3)nc12` [I-216b], the IC50 was more than 1.5 µM. As for `Oc1ccc(CCNc2cc(-c3cncc(F)c3)nc3ccnn23)cc1` [I-49, 4-[2-[[5-(5-Fluoro-3-pyridyl)pyrazolo[1,5-a]pyrimidin-7-yl]amino]ethyl]phenol], the IC50 was less than 0.5 µM. With `Cc1cnn2c(NC3Cc4ccc(O)cc4C3)cc(-c3cncc(F)c3)nc12` (centres unmarked) [I-51, 2-[[5-(5-Fluoro-3-pyridyl)-3-methyl-pyrazolo[1,5-a]pyrimidin-7-yl]amino]indan-5-ol] the figure was less than 0.5 µM. With `Cc1cnn2c(N[C@@H]3Cc4ccc(O)cc4C3)cc(-c3cncc(F)c3)nc12` [I-232, (2R)-2-[[5-(5-Fluoro-3-pyridyl)-3-methyl-pyrazolo[1,5-a]pyrimidin-7-yl]amino]indan-5-ol] the figure was less than 0.5 µM. In the case of `Fc1cncc(-c2nc(NC3CCc4[nH]c5ccccc5c4C3)n3ncc(-c4cnc[nH]4)c3n2)c1` (centres unmarked) [I-274], the IC50 is less than 0.5 µM. With `CN1CCN(C(=O)c2cnn3c(NC4CCc5[nH]c6ccccc6c5C4)nc(-c4cncc(F)c4)nc23)CC1` (centres unmarked) [I-251] the figure was more than 1.5 µM. In turn, `CC(C)c1cnn2c(NC3CCc4[nH]c5ccccc5c4C3)nc(-c3ccnnc3)nc12` (centres unmarked) [I-284] displayed an IC50 of 0.5 to 1 µM. The value for `CC(C)n1cnc2c(NCCn3cnc4ccccc43)nc(-c3cncc(F)c3)nc21` [I-13, N-(2-(1H-Benzo[d]imidazol-1-yl)ethyl)-2-(5-fluoropyridin-3-yl)-9-isopropyl-9H-purin-6-amine] was more than 1.5 µM; that for `Cc1cnn2c(NCCc3ccccc3)cc(-c3cncc(F)c3)nc12` [I-218, 5-(5-fluoro-3-pyridyl)-3-methyl-N-(2-phenylethyl)pyrazolo[1,5-a]pyrimidin-7-amine] was less than 0.5 µM.

Turning to `CC(C)c1cnn2c(N[C@@H]3CCc4[nH]c5ccccc5c4C3)cc(-c3cncc(C#N)c3)nc12` [I-38, 5-[3-Isopropyl-7-[[(3R)-2,3,4,9-tetrahydro-1H-carbazol-3-yl]amino]pyrazolo[1,5-a]pyrimidin-5-yl]pyridine-3-carbonitrile], the IC50 is more than 1.5 µM.

For `CC(C)c1cnn2c(N[C@@H](C)Cc3c[nH]c4ccccc34)cc(-c3cncc(F)c3)nc12` [I-98a, 5-(5-Fluoro-3-pyridyl)-N-[(1S)-2-(1H-indol-3-yl)-1-methyl-ethyl]-3-isopropyl-pyrazolo[1,5-a]pyrimidin-7-amine], the IC50 is more than 1.5 µM. `CSc1nc(N[C@@H]2CCc3[nH]c4ccccc4c3C2)n2ncc(C(C)C)c2n1` [I-122, (3R)—N-(8-Isopropyl-2-methylsulfanyl-pyrazolo[1,5-a][1,3,5]triazin-4-yl)-2,3,4,9-tetrahydro-1H-carbazol-3-amine] displayed an IC50 of more than 1.5 µM.

Regarding `O=C(O)c1cnn2c(NC[C@@H](O)c3c[nH]c4ccccc34)cc(-c3cncc(F)c3)nc12` [I-158b], the IC50 was more than 1.5 µM. With `Cc1cnn2c(NCCc3ccc(N)cc3)cc(-c3cncc(F)c3)nc12` [I-211, N-[2-(4-Aminophenyl)ethyl]-5-(5-fluoro-3-pyridyl)-3-methyl-pyrazolo[1,5-a]pyrimidin-7-amine] the figure was more than 1.5 µM; with `OCc1cnn2c(NCCc3c[nH]c4c(O)cccc34)cc(-c3cncc(F)c3)nc12` [I-133, 3-[2-[[5-(5-fluoro-3-pyridyl)-3-(hydroxymethyl)pyrazolo[1,5-a]pyrimidin-7-yl]amino]ethyl]-1H-indol-7-ol], less than 0.5 µM. Turning to `CC(C)c1cnn2c(N[C@H]3CCc4[nH]c(-c5ccccc5)cc4C3)nc(-c3cncc(F)c3)nc12` [I-249a, 2-(5-Fluoro-3-pyridyl)-8-isopropyl-N-[(5S)-2-phenyl-4,5,6,7-tetrahydro-1H-indol-5-yl]pyrazolo[1,5-a][1,3,5]triazin-4-amine], the IC50 is less than 0.5 µM. With `CC(C)c1cnn2c(N[C@H]3CCc4cn[nH]c4C3)cc(-c3cncc(F)c3)nc12` (single isomer, unassigned) [I-32a] the figure was more than 1.5 µM; with `CC(C)c1cnn2c(N[C@@H]3CCc4c([nH]c5ccccc45)C3)nc(-c3cncc(F)c3)nc12` [I-146b], more than 1.5 µM; with `CC(C)c1cnn2c(NC3CCc4[nH]c5ccccc5c4C3)nc(-c3ccc4c(c3)OC(F)(F)O4)nc12` (centres unmarked) [I-271], more than 1.5 µM. The value for `Cc1c(-c2cncc(F)c2)nc2c(C)cnn2c1NCCc1c[nH]c2ccccc12` [I-169, 5-(5-Fluoro-3-pyridyl)-N-[2-(1H-indol-3-yl)ethyl]-3,6-dimethyl-pyrazolo[1,5-a]pyrimidin-7-amine] was 0.5 to 1 µM.

For the molecule `Fc1cncc(-c2nc(NCCc3c[nH]c4ccccc34)cc(N3CCCCC3)n2)c1` [I-62, 2-(5-Fluoro-3-pyridyl)-N-[2-(1H-indol-3-yl)ethyl]-6-(1-piperidyl)pyrimidin-4-amine], the IC50 was less than 0.5 µM.

Consider `CC(C)c1cnn2c(N[C@@H]3CCc4[nH]c5ccccc5c4C3)nc(-c3cncnc3)nc12` [I-270, (3R)—N-(8-Isopropyl-2-pyrimidin-5-yl-pyrazolo[1,5-a][1,3,5]triazin-4-yl)-2,3,4,9-tetrahydro-1H-carbazol-3-amine], for which the IC50 is less than 0.5 µM. The value for `Cc1cnn2c(NC(CO)Cc3c[nH]c4ccccc34)cc(-c3cncc(F)c3)nc12` (centres unmarked) [I-178] was more than 1.5 µM.

Take `CC(C)c1cnn2c(NCCc3c[nH]c4ccccc34)ccnc12` [I-31, N-[2-(1H-indol-3-yl)ethyl]-3-isopropyl-pyrazolo[1,5-a]pyrimidin-7-amine]: the IC50 was more than 1.5 µM. The value for `OCc1cnn2c(NCCc3c[nH]c4ccc(O)cc34)cc(-c3cncc(F)c3)nc12` [I-143, 3-[2-[[5-(5-fluoro-3-pyridyl)-3-(hydroxymethyl)pyrazolo[1,5-a]pyrimidin-7-yl]amino]ethyl]-1H-indol-5-ol] was more than 1.5 µM.
